# Assay results from ChEMBL document CHEMBL1806400, “New isoprenylated flavonoids and adipogenesis-promoting constituents from Morus notabilis” (2011).
# Activity calls are given as the source filed them. No cut-off for these calls is given here.
# Key:
# [1] = system: 3T3-L1; experiment: Induction of adipogenesis in mouse 3T3L1 cells assessed as increase in triglyceride content at 10 uM after 8 days by Oil red O staining relative to control; format: functional
# [2] = system: 3T3-L1; experiment: Upregulation of aP2 protein expression in mouse 3T3L1 cells by Western blot analysis; format: functional, cell-based
# [3] = system: 3T3-L1; experiment: Upregulation of GLUT4 protein expression in mouse 3T3L1 cells by Western blot analysis; format: functional, cell-based
# [4] = system: 3T3-L1; experiment: Induction of adipogenesis in mouse 3T3L1 cells assessed as increase in triglyceride content at 5 uM after 8 days by Oil red O staining relative to control; format: functional
# [5] = system: 3T3-L1; experiment: Upregulation of aP2 gene expression in mouse 3T3L1 cells by RT-PCR analysis; format: functional, cell-based
# [6] = system: 3T3-L1; experiment: Upregulation of GLUT4 gene expression in mouse 3T3L1 cells by RT-PCR analysis; format: functional, cell-based
# [7] = system: 3T3-L1; experiment: Induction of adipogenesis in mouse 3T3L1 cells assessed as increase in triglyceride content at 1 uM after 8 days by Oil red O staining relative to control; format: functional
# [8] = system: 3T3-L1; experiment: Induction of adipogenesis in mouse 3T3L1 cells assessed as increase in triglyceride content at 15 uM after 8 days by Oil red O staining relative to control; format: functional
# [9] = system: 3T3-L1; experiment: Induction of adipogenesis in mouse 3T3L1 cells assessed as increase in triglyceride content at 7.5 uM after 8 days by Oil red O staining relative to control; format: functional
# [10] = system: 3T3-L1; experiment: Induction of adipogenesis in mouse 3T3L1 cells assessed as increase in triglyceride content after 8 days by Oil red O staining relative to control; format: functional, cell-based
SMILES,Activity [1],Activity [2],Activity [3],Activity [4],Activity [5],Activity [6],Activity [7],Activity [8],Activity [9],Activity [10]
COc1c(-c2ccc(O)c(O)c2C/C=C(\C)CCC=C(C)C)oc2cc(O)cc(O)c2c1=O [NOTABILISIN A],513.55%,Active,Active,305.32%,Active,Active,–,–,–,–
CN(CCOc1ccc(CC2SC(=O)NC2=O)cc1)c1ccccn1 (stereo not given) [ROSIGLITAZONE],–,–,–,–,–,–,984.24%,–,–,–
CC(C)=CCc1c(O)ccc(C(=O)[C@H]2[C@@H](c3c(O)cc(-c4cc5ccc(O)cc5o4)cc3O)C=C(C)C[C@@H]2c2ccc(O)cc2O)c1O [CHALCOMORACIN],–,Active,inactive,–,inactive,inactive,–,125.36%,109.99%,–
CC(C)=CCc1c(O)ccc(C(=O)[C@H]2[C@@H](c3c(O)ccc(C(=O)/C=C/c4ccc(O)cc4O)c3O)C=C(C)C[C@@H]2c2ccc(O)cc2O)c1O,–,–,–,–,–,–,–,–,–,inactive
CC(C)=CCC/C(C)=C/Cc1c(-c2oc3c(CC=C(C)C)c(O)cc(O)c3c(=O)c2O)ccc(O)c1O [NOTABILISIN C],–,Active,Active,–,Active,Active,–,948.51%,312.24%,–
